Measurements reported in paper doi:10.1101/2020.10.05.326645v1 (biorxiv, 2020).

Key:
[1] = molecular target: T1, HhTAR1 (Halyomorpha halys, UniProt A0A8A6C5M4); assay: Fluo-4 calcium mobilization, FlexStation II, HEK […] cells; assay type: cell-based
T1 sequence (A0A8A6C5M4 1-448): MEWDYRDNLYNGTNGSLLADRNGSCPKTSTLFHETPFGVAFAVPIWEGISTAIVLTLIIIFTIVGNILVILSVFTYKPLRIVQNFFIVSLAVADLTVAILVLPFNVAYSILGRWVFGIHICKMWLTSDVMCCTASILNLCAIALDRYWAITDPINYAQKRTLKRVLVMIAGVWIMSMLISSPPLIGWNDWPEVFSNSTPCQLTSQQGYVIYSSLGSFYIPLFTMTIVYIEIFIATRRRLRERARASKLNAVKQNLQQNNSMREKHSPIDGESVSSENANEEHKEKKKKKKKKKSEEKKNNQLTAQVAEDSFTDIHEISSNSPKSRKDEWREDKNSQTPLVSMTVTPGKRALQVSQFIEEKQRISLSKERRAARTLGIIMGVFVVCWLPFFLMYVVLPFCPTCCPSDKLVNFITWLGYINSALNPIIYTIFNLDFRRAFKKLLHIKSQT

[2] = molecular target: T1, HhTAR1; assay type: cell-based

| Kb [2] | Compound | EC50 [1] |
| --- | --- | --- |
| – | NCCc1ccc(O)cc1 [tyramine] | 1020 nM |
| 5.5 nM | COC(=O)[C@@H]1[C@H]2C[C@H]3c4[nH]c5ccccc5c4CCN3C[C@@H]2CC[C@@H]1O [yohimbine] | – |
